For one data set, the system named is WA-1/2020 SARS-CoV-2. The arrangement: species or system K18-hACE2 mice. As to conditions: mouse, in vivo, po, 150 mg/kg.
A further data set has as its system SARS-CoV-2 Omicron BA.1. Briefly: In vitro antiviral assay in HeLa-ACE2 cells. As to conditions: Severe acute respiratory syndrome coronavirus 2, HeLa-ACE2. The class given is cell-based.
Data set [1] deals with SARS-CoV-2 Delta (B.1.617.2). Briefly: In vitro antiviral assay in HeLa-ACE2 cells. The conditions noted are these: Severe acute respiratory syndrome coronavirus 2, HeLa-ACE2. The class given is cell-based.
For the next data set, the system named is SARS-CoV-2 WA-1/2020. As to the kind of experiment: In vitro antiviral assay in HeLa-ACE2 cells. The class given is cell-based. As to conditions: Severe acute respiratory syndrome coronavirus 2, HeLa-ACE2.
A short description of the next data set: in vitro. The conditions noted are these: human.
The subject of a further data set is SARS-CoV-2 Omicron BA.5. As to the kind of experiment: In vitro antiviral assay in HeLa-ACE2 cells. The class given is cell-based. As to conditions: Severe acute respiratory syndrome coronavirus 2, HeLa-ACE2.
Data set [2] concerns SARS-CoV-2 Omicron XBB1.5. As to the kind of experiment: In vitro antiviral assay in HeLa-ACE2 cells. The class given is cell-based. The conditions noted are these: Severe acute respiratory syndrome coronavirus 2, HeLa-ACE2.
The next data set relates to HeLa-ACE2 cells. The conditions noted are these: human.
In the next data set the test system is SARS-CoV-2 Omicron JN.1. As to the kind of experiment: In vitro antiviral assay in HeLa-ACE2 cells. In kind it is cell-based. The conditions noted are these: Severe acute respiratory syndrome coronavirus 2, HeLa-ACE2.

Take `CC(C)C(=O)OC[C@H]1O[C@@H](n2ccc(NO)nc2=O)[C@H](O)[C@@H]1O` [MK-4482, molnupiravir]: the “lung virus titer lowering (positive control)” value in the data set with WA-1/2020 SARS-CoV-2 was “approximately 3 log10 ffu/g tissue”.

For `CC(C)(C)[C@H](NC(=O)C(F)(F)F)C(=O)N1C[C@H]2[C@@H]([C@H]1C(=O)N[C@H](C#N)C[C@@H]1CCNC1=O)C2(C)C` [Nirmatrelvir, nirmatrelvir], the IC50 in the data set with SARS-CoV-2 Omicron BA.1 is 30 nM; in data set [1] it was 40 nM; with SARS-CoV-2 WA-1/2020, 110 nM; with SARS-CoV-2 Omicron BA.5 it was 50 nM; in [2], 20 nM; in the data set with SARS-CoV-2 Omicron JN.1, 60 nM. The IC90 in the data set with SARS-CoV-2 Omicron BA.1 worked out at 80 nM; in [1], 170 nM; with SARS-CoV-2 WA-1/2020 it was 210 nM; with SARS-CoV-2 Omicron BA.5 it was 140 nM; in [2], 50 nM; in the data set on SARS-CoV-2 Omicron JN.1 it was 150 nM. Also, the CC50 in “in vitro” and in the data set on HeLa-ACE2 cells was above 5 µM throughout.

The record behind these values is publication PMC11456799 (Molecular Therapy. Nucleic Acids, 2024).
